Data set [1] can be described thus: Pharmacokinetic evaluation in mice. The conditions noted are these: intragastric administration 10 mg/kg, experimental operation A, fasted overnight. It counts as in vivo, C57BL/6N or CD-1 male mice. From the text:
In this study, C57BL/6N or CD-1 male mice were selected as test animals, and LC/MS/MS method was used to quantify plasma concentrations of the test compound intravenously injected or gavage to mice at different time points, so as to evaluate the pharmacokinetic profile of the compounds of the present disclosure in mice.
C57BL/6N mice (male, 20 to 30 g, 7 to 10 weeks old, Beijing VitalRiver) or CD-1 mice (male, 20 to 35 g, 7 to 10 weeks old, Beijing VitalRiver).
• The test compounds, either as clear or suspension solutions, were administered intravenously through the tail vein to C57BL/6N mice or CD-1 mice (either fasted overnight or fed) (vehicle: 10% DMSO/10% solutol/80% H2O or 5% DMSO/10% solutol/85% H2O), or intragastrically administered to C57BL/6N mice or CD-1 mice (either fasted overnight or fed). For intravenous injection, blood 50 μL was collected via the cheek vein puncture at 0 h (pre-administration), 0.083, 0.25, 0.5, 1, 2, 4, 6, 8, and 24 h after administration, and placed in an anticoagulant tube added with heparin sodium. The mixture was thoroughly vortexed and mixed, and centrifuged at 6000 g for 3 minutes at 2-8° C. For oral administration, blood was collected via the cheek vein puncture at 0 h (pre-administration), 0.083, 0.25, 0.5, 1, 2, 4, 6, 8, and 24 h after administration, and placed in an anticoagulant tube added with heparin sodium. The mixture was thoroughly vortexed and mixed, and centrifuged at 6000 g for 3 minutes at 2-8° C. Plasma concentrations were determined by LC-MS/MS method, and relevant pharmacokinetic parameters were calculated using Phoenix WinNonlin8.2.0 pharmacokinetic software with non-compartmental model linear-log trapezoidal method.
• The test compounds, as clear solutions, were administered intravenously through the tail vein to CD-1 mice (fasted overnight) (vehicle: 10% DMSO/10% solutol/80% H2O or 5% DMSO/10% solutol/85% H2O), or intragastrically administered to CD-1 mice (fasted overnight). For intravenous injection, blood was collected via the saphenous vein puncture at 0 h (pre-administration), 0.083, 0.25, 0.5, 1, 2, 4, 8, and 24 h after administration, and placed in a EDTA-K2 anticoagulant tube. The mixture was thoroughly vortexed and mixed, and centrifuged at 3200 g for 10 minutes at 4° C. to obtain plasma. For oral administration, blood was collected via the saphenous vein puncture at 0 h (pre-administration), 0.083, 0.25, 0.5, 1, 2, 4, 8, and 24 h after administration, and placed in a EDTA-K2 anticoagulant tube. The mixture was thoroughly vortexed and mixed, and centrifuged at 3200 g for 10 minutes at 4° C. to obtain plasma. Plasma concentrations were determined by LC-MS/MS method, and relevant pharmacokinetic parameters were calculated using Phoenix WinNonlin 6.3 pharmacokinetic software with non-compartmental model linear-log trapezoidal method.

Another data set addresses T1, IRAK4 (Homo sapiens, UniProt Q9NWZ3).
T1 construct: expressed in transfected cells; host or cells: K562 IRAK4-HiBiT cells
T1 sequence (Q9NWZ3 1-460): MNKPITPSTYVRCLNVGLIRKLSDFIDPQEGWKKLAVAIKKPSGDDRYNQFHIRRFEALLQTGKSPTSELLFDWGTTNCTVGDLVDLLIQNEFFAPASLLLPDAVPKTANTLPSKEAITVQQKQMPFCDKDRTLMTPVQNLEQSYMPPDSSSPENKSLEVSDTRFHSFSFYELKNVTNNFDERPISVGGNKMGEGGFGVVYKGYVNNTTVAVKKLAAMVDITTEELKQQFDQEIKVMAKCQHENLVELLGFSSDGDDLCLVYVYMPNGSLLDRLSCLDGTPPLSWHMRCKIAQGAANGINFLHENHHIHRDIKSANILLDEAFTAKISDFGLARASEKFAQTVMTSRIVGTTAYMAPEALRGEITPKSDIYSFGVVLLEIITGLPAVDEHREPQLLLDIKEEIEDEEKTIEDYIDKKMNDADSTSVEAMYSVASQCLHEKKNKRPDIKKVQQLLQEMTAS
Description: Target protein degradation in K562 IRAK4-HiBiT cells (Nano-Glo HiBiT). It counts as cell-based. The conditions noted are these: 16 to 18 hours; for Dmax: read-out: Maximum degradation rate. As to the method:
Experimental objective: The experiment aims to evaluate the degradation effect of the test compounds on the target protein IRAK4 in K562 IRAK4-HiBiT cells.
• Cells: K562 IRAK4-HiBiT cells • Culture medium: RPMI 1640+10% fetal bovine serum+2 mM glutamine+1 mM sodium pyruvate+penicillin/streptomycin. • Positive control: 1000 nM; negative control: 0.1% DMSO.
• (1). The powder of the compound to be tested was dissolved in DMSO to a storage concentration of 10 mM. A total of 9 μL of the 10 mM of the compound to be tested was manually pipetted into the 1st and 13th columns of the LDV plate using a pipettor; • (2). A volume of 6 μL of DMSO was added to columns 2-12 and 14-24 using a Multidrop Combi; • (3). A 3-fold dilution of the test compounds (3 μL+6 μL) was performed using Bravo, for columns 1-11 and 13-23; • (4). According to the plate layout, 25 nL of compound solution (columns 1-24 of the LDV plate) was transferred to the experimental plate using Echo; • (5) 25 nL of the 1 mM positive control solution was transferred to the assay plate as a 100% degradation control (i.e. LC, HPE), and 25 nL of DMSO was transferred to the assay plate as a 0% control (i.e. HC, ZPE).
• (1) The culture medium was discarded, and the cells were washed once with DPBS, digested with trypsin, counted, and prepared into a cell suspension of […]. • (2) Using the MultiDrop Combi at a medium speed, 25 μL/well of the cell suspension was added to the experimental plate containing the test compounds; • (3) The experimental plate containing cells was returned to the incubator and cultured for 16 to 18 hours at 37° C. and 5% CO2.
• (1). Using the MultiDrop Combi at a high speed, 25 μL/well of the assay reagent (NanoGlo lytic solution+substrate+LgBit protein) was added to the assay plate, followed by shaking for 10 minutes; • (2) The plate was centrifuged at 2000 rpm for 1 minute to remove any bubbles; • (3) Readings were obtained by using an Envision, US Luminescence reader.
To calculate the degradation rate (DR) of the test compounds, the following formula is used: IR (%)=(RLU vehicle control−RLU compound)/(RLU vehicle control−RLU positive control)×100%. The solvent control refers to the blank control. The degradation rates of compounds at different concentrations were calculated in Excel, and then XLFit software was used to plot inhibition curves and calculate relevant parameters, including minimum degradation rate, maximum degradation rate, and DC50.

The next data set concerns the target T2, IKZF1 (Homo sapiens, UniProt Q13422+Q96SW2).
T2 construct: host or cells: MM.1S cells
Description: In Cell Western of IKZF1 protein expression level in MM.1S cells. It counts as cell-based. The conditions noted are these: IKZF1, MM.1S cells, 24 hours; for Dmax: MM1.S, read-out: Maximum degradation rate Dmax. As to the method:
Experimental objective: The experiment aims to assess the degradation effect of the test compounds on IKZF1 and 1KZF3 proteins in MM.1S cells by evaluating the impact of the test compounds on the expression levels of IKZF1 and IZKZF3 proteins in MM.1S cells.
• Cell lines: MMN.1 S cell (sourced from ATCC; Cat. No CRL-2974) • Negative control: 0.100 DMSO.
• 1) Log phase MM.1 S cells were plated in a 96-well plate at 1.2×10^5 cells per well and cultured overnight; • 2) The next day, compounds were added with a starting concentration of 300 nM, diluted threefold across three replicate wells for 10 concentration gradients (including DMSO), and the cells were incubated for 24 hours in an incubator; • 3) The cells were centrifuged, and the supernatant was carefully removed. 150 μL of 4% paraformaldehyde fixative was added along the wall of the wells, avoiding contact with the bottom cells, and the cells were incubated at room temperature for 20 minutes; • 4) Lysis buffer was prepared by mixing 0.5 mL of 10% Triton X-100 with 49.5 mL of PBS until homogenous; • 5) 200 μL of lysis buffer was added along the well walls, again avoiding the bottom cells, and incubated on a shaker at room temperature for 5 minutes; • 6) The wells were washed four times; • 7) 150 μL of Licor […] Blocking Buffer was added along the well walls, avoiding the bottom cells, and the cells were incubated on a shaker at room temperature for 1.5 hours; • 8) Ikaros (D6N9Y) Rabbit mAb, Aiolos (D1C1E) Rabbit mAb and GAPDH mouse mAb (proteintech, 60004-1-Ig) were diluted at a 1:100 ratio using antibody dilution buffer; • 9) 50 μL of mixed antibody was added to each well with three replicate wells, and the cells were incubated overnight on a shaker at 4° C.; • 10) PBST (PBS with 0.1% Tween 20) was prepared; • 11) The primary antibodies were removed, and 200 μL of PBST was added along the well walls, avoiding the bottom cells, and the cells were incubated on a shaker at room temperature for 5 minutes; • 12) The wells were washed four times; • 13) Secondary antibody dilution buffer was prepared by adding Tween 20 to Licor […] Blocking Buffer to a final concentration of 0.2%; • 14) Fluorescent secondary antibodies were diluted in the dark at a 1:800 ratio. To 400 μL of secondary antibody dilution solution, 0.5 μL of each IRDye 800CW and IRDye 680CW (corresponding to the primary antibodies) was added. • 15) 50 μL of the diluted fluorescent secondary antibodies was added to each well and the cells were incubated on a shaker at room temperature in the dark for 60 minutes; • 16) The secondary antibodies were removed, and 200 μL of PBST was added along the well walls, avoiding the bottom cells, and the cells were incubated on a shaker at room temperature in the dark for 5 minutes; • 17) The wells were washed four times; immediately after washing, the Odyssey Gel Imaging System was used for detection at dual wavelengths of 700 nm and 800 nm.
Using GraphPad Prism 6 software, inhibition rate data was entered to fit the curve and calculate the DC50 value.

10 compounds from patent US20240400547A1, “2,6-PIPERIDINEDIONE COMPOUND AND APPLICATION THEREOF” (MEDSHINE DISCOVERY INC., priority 2021, published 2024) can be followed below.

Where a name gives a salt, the structure may show the parent alone.

T2 sequence (Q13422 whole entry): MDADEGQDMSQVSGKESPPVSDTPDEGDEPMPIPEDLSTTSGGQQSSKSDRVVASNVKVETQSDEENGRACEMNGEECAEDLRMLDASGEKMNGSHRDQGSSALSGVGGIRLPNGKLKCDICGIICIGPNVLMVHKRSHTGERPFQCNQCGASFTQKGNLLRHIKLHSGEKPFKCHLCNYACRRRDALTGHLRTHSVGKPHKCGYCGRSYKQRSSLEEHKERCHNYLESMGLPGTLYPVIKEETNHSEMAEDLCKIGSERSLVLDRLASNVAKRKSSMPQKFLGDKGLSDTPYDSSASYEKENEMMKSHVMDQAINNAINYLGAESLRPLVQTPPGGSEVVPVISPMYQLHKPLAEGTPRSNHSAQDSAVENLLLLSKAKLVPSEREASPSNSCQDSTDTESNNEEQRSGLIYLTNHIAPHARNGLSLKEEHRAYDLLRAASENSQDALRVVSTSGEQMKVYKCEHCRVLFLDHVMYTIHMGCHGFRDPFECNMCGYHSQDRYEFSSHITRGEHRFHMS
T2 sequence (Q96SW2 whole entry): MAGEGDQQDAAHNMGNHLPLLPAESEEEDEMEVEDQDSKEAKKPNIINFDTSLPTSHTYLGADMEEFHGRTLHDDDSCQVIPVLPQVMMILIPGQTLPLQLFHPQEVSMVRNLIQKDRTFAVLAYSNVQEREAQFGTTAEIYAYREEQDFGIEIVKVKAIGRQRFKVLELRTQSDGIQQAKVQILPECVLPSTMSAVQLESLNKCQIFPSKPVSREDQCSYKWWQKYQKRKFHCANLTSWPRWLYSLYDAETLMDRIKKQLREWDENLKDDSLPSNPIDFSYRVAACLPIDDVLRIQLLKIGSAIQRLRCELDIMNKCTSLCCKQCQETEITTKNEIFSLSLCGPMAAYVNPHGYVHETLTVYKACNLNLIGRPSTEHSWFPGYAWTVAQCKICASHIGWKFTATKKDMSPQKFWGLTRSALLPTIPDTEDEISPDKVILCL
T2 sequence (Q16531 whole entry partner): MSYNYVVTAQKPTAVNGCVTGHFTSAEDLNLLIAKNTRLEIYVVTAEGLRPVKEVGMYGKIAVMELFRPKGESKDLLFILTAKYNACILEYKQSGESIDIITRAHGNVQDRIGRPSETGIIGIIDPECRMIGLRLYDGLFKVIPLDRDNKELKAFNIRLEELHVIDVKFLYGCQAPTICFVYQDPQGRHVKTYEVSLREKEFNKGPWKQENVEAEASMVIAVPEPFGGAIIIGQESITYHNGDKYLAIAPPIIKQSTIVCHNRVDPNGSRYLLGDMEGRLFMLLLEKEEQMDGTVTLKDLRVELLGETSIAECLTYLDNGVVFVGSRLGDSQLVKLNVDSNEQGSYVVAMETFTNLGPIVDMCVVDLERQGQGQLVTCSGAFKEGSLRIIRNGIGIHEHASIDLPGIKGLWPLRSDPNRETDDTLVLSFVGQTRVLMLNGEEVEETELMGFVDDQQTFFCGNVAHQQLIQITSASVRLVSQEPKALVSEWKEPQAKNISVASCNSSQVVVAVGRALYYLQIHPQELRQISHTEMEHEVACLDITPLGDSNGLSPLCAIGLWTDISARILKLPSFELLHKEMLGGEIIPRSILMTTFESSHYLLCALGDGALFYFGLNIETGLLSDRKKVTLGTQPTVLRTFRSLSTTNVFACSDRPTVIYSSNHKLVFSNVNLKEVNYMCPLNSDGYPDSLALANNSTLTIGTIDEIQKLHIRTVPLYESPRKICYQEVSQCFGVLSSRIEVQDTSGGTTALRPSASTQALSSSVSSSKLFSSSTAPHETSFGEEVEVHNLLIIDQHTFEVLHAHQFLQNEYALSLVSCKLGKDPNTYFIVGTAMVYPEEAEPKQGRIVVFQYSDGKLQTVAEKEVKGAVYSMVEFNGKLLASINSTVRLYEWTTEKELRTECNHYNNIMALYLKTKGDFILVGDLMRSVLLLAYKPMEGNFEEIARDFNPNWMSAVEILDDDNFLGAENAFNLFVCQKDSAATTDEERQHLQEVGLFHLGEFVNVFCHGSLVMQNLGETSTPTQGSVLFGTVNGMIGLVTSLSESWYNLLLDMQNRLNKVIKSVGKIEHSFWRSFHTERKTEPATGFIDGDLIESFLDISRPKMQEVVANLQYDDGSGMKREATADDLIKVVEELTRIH

For the compound `CC(C)(O)c1cc2nc([C@H]3CC[C@H](CN4CCC(C(F)(F)C(=O)Nc5cccc6c5ccc5onc(C7CCC(=O)NC7=O)c56)CC4)CC3)sc2cc1NC(=O)c1cccc(C(F)(F)F)n1` (stereo partly shown) [Formate of WX019], in data set [1], the “Area under drug-time curve (0-inf)” value came out at 5.10 µM·h, the Peak concentration came out at 0.34 µM and the “Time to peak concentration” value was determined as 3.33 h. On IRAK4, the DC50 was determined as 15.1 nM and the Dmax was found to be 92%.
Turning to `CC(C)(O)c1cc2nc([C@H]3CC[C@H](CN4CCC(C(F)(F)C(=O)Nc5cccc6c(C7CCC(=O)NC7=O)noc56)CC4)CC3)sc2cc1NC(=O)c1cccc(C(F)(F)F)n1` (stereo partly shown) [Formate of WX023], on IKZF1, the DC50 is 31.3 nM and the Dmax worked out at 57.2%. At IRAK4, the DC50 came out at 7.16 nM and the Dmax was found to be 114%.
The like results for `O=C1CCC(c2noc3c(NC(=O)C(F)(F)C4CCN(C[C@H]5CC[C@H](n6cc(NC(=O)c7coc(-c8ccnc(NCC9CC9)c8)n7)c(C(F)F)n6)CC5)CC4)cccc23)C(=O)N1` (stereo partly shown) [Formate of WX024] were, in that order, 35.2 nM, 60.8%, 1.75 nM and 117%.
Regarding `CC(C)(O)c1cc2nc([C@H]3CC[C@H](CN4CCN(CC(=O)Nc5cccc6c(C7CCC(=O)NC7=O)noc56)CC4)CC3)sc2cc1NC(=O)c1cccc(C(F)(F)F)n1` (stereo partly shown) [Formate of WX029], on IKZF1, the DC50 came out at 38.8 nM and the Dmax came to 61.8%. Further, on IRAK4, the DC50 was determined as 4.26 nM and the Dmax worked out at 112%.
For the compound `O=C1CCC(c2coc3ccc(NC(=O)CN4CCN(C[C@H]5CC[C@H](n6cc(NC(=O)c7coc(-c8ccnc(NCC9CC9)c8)n7)c(C(F)F)n6)CC5)CC4)cc23)C(=O)N1` (stereo partly shown) [Hydrochloride of WX001], at IRAK4, the DC50 came out at 76.4 nM and the Dmax was 54.3%.
In the case of `CN(CCCOCCCc1ccc2c(ccc3occ(C4CCC(=O)NC4=O)c32)c1)C[C@H]1CC[C@H](n2cc(NC(=O)c3coc(-c4ccnc(NCC5CC5)c4)n3)c(C(F)F)n2)CC1` (stereo partly shown) [Hydrochloride of WX008], at IKZF1, the DC50 worked out at 4.66 nM and the Dmax turned out to be 81.4%. At IRAK4, the DC50 was found to be 122 nM and the Dmax stood at 82.2%.
For the compound `CN(CCCOCCCc1cccc2c1ccc1onc(C3CCC(=O)NC3=O)c12)CC1CCC(n2cc(NC(=O)c3coc(-c4ccnc(NCC5CC5)c4)n3)c(C(F)F)n2)CC1` (stereo not shown) [Hydrochloride of WX013], on IRAK4, the DC50 is 48.7 nM and the Dmax amounted to 101%.
The like results for `CN(CCCOCCCc1cccc2c1ccc1occ(C3CCC(=O)NC3=O)c12)CC1CCC(n2cc(NC(=O)c3coc(-c4ccnc(NCC5CC5)c4)n3)c(C(F)F)n2)CC1` (stereo not shown) [Trifluoroacetate of WX010] were, in that order, 50.2 nM and 81.7%.
The like results for `O=C1CCC(c2coc3ccc4cc(NC(=O)CN5CCN(C[C@H]6CC[C@H](n7cc(NC(=O)c8coc(-c9ccnc(NCC%10CC%10)c9)n8)c(C(F)F)n7)CC6)CC5)ccc4c23)C(=O)N1` (stereo partly shown) [WX007] were, in that order, 35.1 nM and 97.4%.
For `CC(C)(O)c1cc2nc([C@H]3CC[C@H](CN4CC5(CC(CCNc6ccc7c(ccc8onc(C9CCC(=O)NC9=O)c87)c6)C5)C4)CC3)sc2cc1NC(=O)c1cccc(C(F)(F)F)n1` (stereo partly shown) [WX021], on IKZF1, the DC50 was found to be 2.66 nM and the Dmax is 87.6%.
